Literature values, collected in patent US20020155136A1, “MEDICINE CONTAINING YOHIMBINE AND ARGININE FOR TREATING ERECTILE DYSFUNCTION” (priority 1997, published 2002).

Legend:
erectile dysfunction = conditions: 2800 mg per day; Zorgniotti and Lizza 1994
[1] = test system: impotence of psychogenic origin

Row | SMILES | favourable effect on erectile dysfunction, proportion of cases (erectile dysfunction) | side effects observed ([1]; for relatively large doses, The Medical Letter 1995) | improvements, proportion of cases ([1]; impotence of psychogenic origin, published studies, results controversial)
1 | N=C(N)NCCC[C@H](N)C(=O)O [L-arginine] | approximately 40 % of cases |  | 
2 | COC(=O)[C@@H]1[C@H]2C[C@H]3c4[nH]c5ccccc5c4CCN3C[C@@H]2CC[C@@H]1O [yohimbine] |  | vertigo, anxiety, nervousness, headaches, insomnia and an increase in arterial pressure | 35 to 45 % of cases
